# Assay results: patent publication US20070225278A1, “Methods for treating cognitive and other disorders” (priority 2006, published 2007)
# How the values were obtained:
# [1] = test system: extracellular glutamate levels in the rat mPFC; assay: In vivo microdialysis, glutamate in medial prefrontal cortex; conditions: 17 mg/kg s.c., acute
# Procedure: (§1) Animals: Adult male Sprague-Dawley rats (Charles River, Wilmington, Mass.) weighing 280-350 g at the time of surgery were used for all microdialysis experiments. Adult male Long-Evans rats (Charles River, Wilmington, Mass.) weighing 180-220 g were used for NOR studies. Rats were housed individually for recognition memory studies. All animals had free access to food and water and were group housed in the AAALAC-accredited facility that was maintained on a 12 h light dark cycle (lights on at 0600 h) for at least 1 week prior to surgery or behavioral testing. All in vivo studies were performed in accordance to the ‘Guide for the Care and Use of Laboratory Animals’ as adopted and promulgated by the National Institutes of Health (Pub. 85-23, 1985).
# Stereotaxic Surgery Following induction of anesthesia with 3% halothane (Fluothane; Zeneca, Cheshire, UK), animals were secured in a stereotaxic frame with ear and incisor bars (David Kopf, Tujunga, Calif.). Anesthesia was maintained by continuous administration of halothane (1-2%) while a microdialysis guide cannula (CMA/12, CMA Microdialysis, Stockholm, Sweden) was implanted above the medial prefrontal cortex (AP: 3.2 mm ML: −0.6 mm DV: −3.8 mm). […]
# Dialysate (10 μL) f was collected and analyzed for extracellular glutamate concentrations. […]
# [2] = Antidepressant-like effects (MED), Table 2; type: in vivo; conditions: minimal effective dose
# From the text: Table 2, below, summarizes the dose at which antidepressant-like effects are observed, the dose at which sexual dysfunction occurs, and the therapeutic window.
# [3] = test system: acetylcholine in medial prefrontal cortex; assay: In vivo microdialysis, acetylcholine in medial prefrontal cortex; conditions: 17 mg/kg s.c., rat
# Procedure: as §1, with “1985). […]” for “1985).”
# Analysis of Acetylcholine Dialysate levels of acetylcholine were determined using LC/MS/MS. […]
# Acetylcholine data were quantified using peak area against an internal standard and acquired using Masslynx software (Micromass, Beverly, Mass., USA). The mean of the concentration of baseline samples was calculated and denoted as 0%. All sample values were expressed as a percent change from this pre-injection mean baseline value (% change from baseline). Neurochemical data, excluding pre-injection values, were analyzed by a two-way analysis of variance (ANOVA) with repeated measures (time). […]
smiles,measurement,setting,value
c1cc2c3c(c1)[C@H]1CCC[C@H]1N3CCNC2 [Compound 1],glutamate levels compared to vehicle-treated animals,[1],210%
same,Antidepressant-like effects (MED mg/kg),[2],0.3 mg/kg
same,maximal increase in acetylcholine with respect to baseline,[3],63%
